Measurements reported in ChEMBL document CHEMBL1150522, “Preparation and antifungal activity of fusacandin analogs: C-6 sidechain esters” (1996).
≈ marks a conversion by molar mass, not a printed value.

Assays:
Format in all cases: functional
[1] = system: Candida albicans; assay: Minimum inhibitory concentration against Candida albicans (ATCC 38247) in the presence of serum
[2] = system: Candida albicans; assay: Minimum inhibitory concentration against Candida albicans (579a) in the presence of serum
[3] = system: Candida albicans; assay: Minimum inhibitory concentration against Candida albicans (CCH 442) in the absence of serum.
[4] = system: Candida albicans; assay: Minimum inhibitory concentration against Candida albicans (579a) in the absence of serum.
[5] = system: Candida albicans; assay: Minimum inhibitory concentration against Candida albicans (ATCC 62376) in the absence of serum.
[6] = system: Candida albicans; assay: Minimum inhibitory concentration against Candida albicans (ATCC 10231) in the presence of serum
[7] = system: Candida albicans; assay: Minimum inhibitory concentration against Candida albicans (ATCC 38247) in the absence of serum.
[8] = system: Candida albicans; assay: Minimum inhibitory concentration against Candida albicans (ATCC 62376) in the presence of serum
[9] = system: Candida albicans; assay: Minimum inhibitory concentration against Candida albicans (ATCC 10231) in the absence of serum.
[10] = system: Candida albicans; assay: Minimum inhibitory concentration against Candida albicans (CCH 442) in the presence of serum

Compound	MIC [1]	MIC [2]	MIC [3]	MIC [4]	MIC [5]	MIC [6]	MIC [7]	MIC [8]	MIC [9]	MIC [10]
CCCCC/C=C/C=C/[C@@H](O)C/C=C/C=C/C(=O)O[C@@H]1[C@@H](O)[C@H](c2c(O)cc(O)cc2CO)O[C@H](CO)[C@H]1O[C@@H]1O[C@H](COC(C)=O)[C@H](O)[C@H](O)[C@H]1O[C@@H]1O[C@H](CO)[C@H](O)[C@H](O)[C@H]1O	> 100 mg/L	> 100 mg/L	> 100 mg/L	> 100 mg/L	> 100 mg/L	> 100 mg/L	> 100 mg/L	> 100 mg/L	> 100 mg/L	> 100 mg/L
CCC(O)/C=C/C=C\C=C\C(=O)OC[C@H]1O[C@@H](O[C@H]2[C@H](OC(=O)/C=C/C=C/C[C@H](O)/C(C)=C/C=C/CCC(C)CC)[C@@H](O)[C@@]3(OCc4cc(O)cc(O)c43)O[C@@H]2CO)[C@H](O)[C@@H](O)[C@H]1O (stereo not given in full)	0.39 mg/L	0.78 mg/L	> 100 mg/L	> 100 mg/L	> 100 mg/L	0.2 mg/L	> 100 mg/L	0.39 mg/L	> 100 mg/L	0.78 mg/L
CCCCC/C=C/C=C/[C@@H](O)C/C=C/C=C/C(=O)O[C@@H]1[C@@H](O)[C@H](c2c(O)cc(O)cc2CO)O[C@H](CO)[C@H]1O[C@@H]1O[C@H](COC(=O)c2cc3ccccc3c3ccccc23)[C@H](O)[C@H](O)[C@H]1O[C@@H]1O[C@H](CO)[C@H](O)[C@H](O)[C@H]1O	6.25 mg/L	3.12 mg/L	100 mg/L (≈ 92.8 µM)	50 mg/L (≈ 46.4 µM)	100 mg/L (≈ 92.8 µM)	3.12 mg/L	100 mg/L (≈ 92.8 µM)	3.12 mg/L	50 mg/L (≈ 46.4 µM)	3.12 mg/L
CCCCC/C=C/C=C/[C@@H](O)C/C=C/C=C/C(=O)O[C@@H]1[C@@H](O)[C@H](c2c(O)cc(O)cc2CO)O[C@H](CO)[C@H]1O[C@@H]1O[C@H](COC(=O)c2cccc3ccccc23)[C@H](O)[C@H](O)[C@H]1O[C@@H]1O[C@H](CO)[C@H](O)[C@H](O)[C@H]1O	1.56 mg/L	3.12 mg/L	50 mg/L (≈ 48.7 µM)	50 mg/L (≈ 48.7 µM)	100 mg/L (≈ 97.4 µM)	3.12 mg/L	50 mg/L (≈ 48.7 µM)	6.25 mg/L	50 mg/L (≈ 48.7 µM)	3.12 mg/L
CCCCC/C=C/C=C/[C@@H](O)C/C=C/C=C/C(=O)O[C@@H]1[C@@H](O)[C@H](c2c(O)cc(O)cc2CO)O[C@H](CO)[C@H]1O[C@@H]1O[C@H](COC(=O)c2ccc(-c3ccc(CC)cc3)cc2)[C@H](O)[C@H](O)[C@H]1O[C@@H]1O[C@H](CO)[C@H](O)[C@H](O)[C@H]1O	0.78 mg/L	0.2 mg/L	12.5 mg/L (≈ 11.6 µM)	25 mg/L (≈ 23.1 µM)	25 mg/L (≈ 23.1 µM)	0.78 mg/L	25 mg/L (≈ 23.1 µM)	0.39 mg/L	25 mg/L (≈ 23.1 µM)	0.78 mg/L
CCCCC/C=C/C=C/[C@@H](O)C/C=C/C=C/C(=O)O[C@@H]1[C@@H](O)[C@H](c2c(O)cc(O)cc2CO)O[C@H](CO)[C@H]1O[C@@H]1O[C@H](COC(=O)c2ccc(-c3ccc(OCc4ccccc4)cc3)cc2)[C@H](O)[C@H](O)[C@H]1O[C@@H]1O[C@H](CO)[C@H](O)[C@H](O)[C@H]1O	3.12 mg/L	0.78 mg/L	12.5 mg/L (≈ 10.8 µM)	50 mg/L (≈ 43.1 µM)	25 mg/L (≈ 21.6 µM)	1.56 mg/L	25 mg/L (≈ 21.6 µM)	1.56 mg/L	50 mg/L (≈ 43.1 µM)	3.12 mg/L
CCCCC/C=C/C=C/[C@@H](O)C/C=C/C=C/C(=O)O[C@@H]1[C@@H](O)[C@H](c2c(O)cc(O)cc2CO)O[C@H](CO)[C@H]1O[C@@H]1O[C@H](COC(=O)c2ccc3c(c2)-c2ccccc2-3)[C@H](O)[C@H](O)[C@H]1O[C@@H]1O[C@H](CO)[C@H](O)[C@H](O)[C@H]1O	0.78 mg/L	0.39 mg/L	25 mg/L (≈ 23.8 µM)	25 mg/L (≈ 23.8 µM)	25 mg/L (≈ 23.8 µM)	1.56 mg/L	25 mg/L (≈ 23.8 µM)	1.56 mg/L	25 mg/L (≈ 23.8 µM)	0.39 mg/L
CCCCC/C=C/C=C/[C@@H](O)C/C=C/C=C/C(=O)O[C@@H]1[C@@H](O)[C@H](c2c(O)cc(O)cc2CO)O[C@H](CO)[C@H]1O[C@@H]1O[C@H](COC(=O)c2ccc(-c3ccc(OCCCCCCCC)cc3)cc2)[C@H](O)[C@H](O)[C@H]1O[C@@H]1O[C@H](CO)[C@H](O)[C@H](O)[C@H]1O	50 mg/L	25 mg/L	100 mg/L (≈ 84.7 µM)	100 mg/L (≈ 84.7 µM)	100 mg/L (≈ 84.7 µM)	25 mg/L	> 100 mg/L	12.5 mg/L	100 mg/L (≈ 84.7 µM)	25 mg/L
CCCCC/C=C/C=C/[C@@H](O)C/C=C/C=C/C(=O)O[C@@H]1[C@@H](O)[C@H](c2c(O)cc(O)cc2CO)O[C@H](CO)[C@H]1O[C@@H]1O[C@H](COC(=O)CCCCCCCCC)[C@H](O)[C@H](O)[C@H]1O[C@@H]1O[C@H](CO)[C@H](O)[C@H](O)[C@H]1O	12.5 mg/L	12.5 mg/L	> 100 mg/L	> 100 mg/L	> 100 mg/L	12.5 mg/L	> 100 mg/L	12.5 mg/L	> 100 mg/L	6.25 mg/L
